In publication PMC13065080, “Discovery of a potent anti-Zika virus benzamide series targeting the viral protein NS4B” (PLOS Pathogens, 2026):
Where two headings read alike, the source gives them in different places.

What was measured:
[1] = test system: ZIKV-RLuc; assay: microbe, parasite or virus in culture; format: cell-based, Zika virus
[2] = target: ZIKV NS4B (Zika virus, UniProt A0A142I5B9); assay: biochemical; format: binding
[3] = test system: ZIKV PLCal; assay: CPE-based anti-ZIKV concentration-response assay (96-well); format: cell-based, Zika virus
[4] = test system: Vero76
[5] = test system: ZIKV PLCal; assay: Virus yield (titer) reduction assay in Huh 7.5.1 cells; format: cell-based, Zika virus; settings: 1 µM
[6] = test system: ZIKV-RLuc NS4B V241L; format: cell-based, Zika virus
[7] = test system: ZIKV-RLuc NS4B A245T; format: cell-based, Zika virus
[8] = test system: ZIKV-RLuc NS4B V248G; format: cell-based, Zika virus
[9] = in vitro; settings: African green monkey, CC50 Vero76
[10] = target: T1, miniRFP-NS4B (Zika virus, UniProt A0A142I5B9); assay: Flow cytometric binding assay, miniRFP-NS4B expressing cells; format: cell-based; settings: 293T cells, vs miniRFP alone, miniRFP-NS5 or NS4B-negative cells
T1 construct: 2K-miniRFPnano3-NS4B polypeptide-expressing plasmid (miniRFP-NS4B, hereafter); expressed in transfected cells; host or cells: HEK-293T
Procedure: HEK-293T cells plated in 12-well plates at 70–80% confluency were transfected with plasmid DNA (1 µg/well) using PEI (Polyethylenimine, 3 µg/well) following a protocol described elsewhere. At 24 hours post transfection, cells were harvested by trypsinization, fixed with 2% PFA, and permeabilized with […]. After blocking for one hour with Intercept Protein-Free blocking buffer (Li-Cor), cells were incubated with MWAC-4163 in PBS with 10% blocking buffer for 30 minutes. After extensive washing, cells were analyzed on an Accuri C6 flow cytometer (BD Sciences) using channel 1 for FAM (ex488 nm/em533) and channel 4 (ex640 nm/em675LP) for miniRFP.

[11] = Vero 76, MOI 0.05, 3-day incubation, CellTiter-Glo, read-out: EC50-CPE ZIKV-PLCal
[12] = wild type ZIKV-RLuc, Vero 76, MOI 0.1, three days, read-out: EC50 ZIKV-RLuc
[13] = Zika virus, Fig 7, read-out: CPE EC50
[14] = Zika virus, Vero 76, 72 h, wild type ZIKV-RLuc, Vero 76, MOI 0.1, three days, read-out: EC50 ZIKV-RLuc
[15] = Zika virus, Fig 7, read-out: RLuc EC50
[16] = Zika virus, 72 h, Vero 76, MOI 0.05, 3-day incubation, CellTiter-Glo, read-out: EC50-CPE ZIKV-PLCal

| Structure (SMILES) | EC50 [3, 11] [µM] | EC50 [1, 12] [µM] | CC50 [4] [µM] | EC50 [3, 13] [µM] | EC50 [1, 14] [µM] | EC50 [1, 15] [µM] | VYR: Virus Yield reduction (Log 10) [5] [Log 10] | EC50 [6] [µM] | EC50 [7] [µM] | EC50 [8] [µM] | CC50 [9] [µM] | also measured |
| --- | --- | --- | --- | --- | --- | --- | --- | --- | --- | --- | --- | --- |
| CC(C)(C)c1ccc(C(=O)N2C[C@H](C(=O)O)[C@@H](c3cccc(F)c3)C2)cc1 (relative stereo) [MWAC-3533] | – | – | – | – | – | – | – | – | – | – | – | EC50 ([1]; Zika virus, Vero 76, 72 h, read-out: EC50 ZIKV-RLuc): ~16 µM; Kd [2]: ~35 µM; 19F-NMR signal change with ZIKV NS4B ([2]; compound 50 µM): shifted by the presence of ZIKV NS4B in a concentration-dependent manner |
| O=C(NC1CC2CCC1C2)c1ccc(C(F)(F)F)cc1 (stereo not drawn) [MWAC-3997, N-((exo)-bicyclo[2.2.1]heptan-2-yl)-4-(trifluoromethyl)benzamide] | 39 ± 15.3 | 4.06 ± 1.17 | > 50 | – | – | – | – | – | – | – | – | – |
| CC(C)(C)c1ccc(C(=O)N[C@H]2C[C@H]3CC[C@@H]2C3)cc1 (relative stereo) [MWAC-3992, N-((endo)-bicyclo[2.2.1]heptan-2-yl)-4-(tert-butyl)benzamide] | – | – | – | 0.94 | 0.34 ± 0.018 | 0.58 | -1.20 ± 0.09 | 27.5 | 2.77 ± 0.31 | 16.8 ± 2.54 | 63 | – |
| CC(C)(C)c1ccc(C(=O)NC2CC3CCC2C3)cc1 (centres unmarked) [MWAC-3508] | – | – | – | 0.36 | 0.11 ± 0.002 | 0.15 | -0.93 ± 0.07 | 13.2 ± 1.87 | 0.81 ± 0.11 | 4.37 ± 0.37 | > 50 | – |
| COc1ccc([C@@H](C)NC(=O)c2ccc(C(C)(C)C)cc2)cc1 [MWAC-4169, (R)-4-(tert-butyl)-N-(1-(4-methoxyphenyl)ethyl)benzamide] | – | – | – | – | – | – | – | – | – | – | – | binding to cells expressing miniRFP-NS4B (FAM-positive frequency) [10]: significantly higher degree of binding |
| CC(NC(=O)c1ccc(C(C)(C)C)cc1)c1ccncc1 (centres unmarked) [MWAC-3510] | – | – | – | – | 15 | – | – | – | – | – | > 48 | EC50 [3, 16]: > 50 µM |
| CC(C)(C)c1ccc(C(=O)NC2CCCCC2)cc1 [MWAC-4000, 4-(tert-butyl)-N-cyclohexylbenzamide] | – | – | – | 0.21 | 0.03 ± 0.003 | 0.09 | -1.67 ± 0.10 | 21.3 ± 4.87 | 0.68 ± 0.09 | 6.6 ± 0.53 | > 50 | Fold-change of EC50, Wt ([1]; ZIKV RLuc assay, reference): 1; Fold-increase / fold-change of EC50, NS4B V241L vs wild type [6]: 659.3; Fold-increase / fold-change of EC50, NS4B A245T vs wild type [7]: 21.2; Fold-increase / fold-change of EC50, NS4B V248G vs wild type [8]: 204.7 |
| CC(C)(C)c1ccc(C(=O)NC2CCN(Cc3ccccc3)CC2)cc1 [MWAC-3512] | – | – | – | – | 7.4 | – | – | – | – | – | 58 | EC50 [3, 16]: 44 µM |
| O=C(NC1CC2CCC1C2)c1ccc(C2CC2)cc1 (stereo not drawn) [MWAC-3990, N-((exo)-bicyclo[2.2.1]heptan-2-yl)-4-cyclopropylbenzamide] | 33.1 ± 25.5 | 3.01 ± 1.11 | 22.7 | – | – | – | – | – | – | – | – | – |
| CC(C)(O)c1ccc(C(=O)NC2CC3CCC2C3)cc1 (stereo not drawn) [MWAC-3995, N-((exo)-bicyclo[2.2.1]heptan-2-yl)-4-(2-hydroxypropan-2-yl)benzamide] | 39 | 13.9 | > 50 | – | – | – | – | – | – | – | – | – |
